The structures appear in SMILES notation. Numbers after ± are expanded uncertainties.

The conditions of data set [1]: 298.15 K, 101.33 kPa, Liquid; for mass density: Pycnometric method; for speed of sound: Sing-around technique in a fixed-path interferometer.
Data set [2] in a line: refractive index (Na D-line) (dimensionless). Conditions: 298.15 K; 101.33 kPa; Liquid; Standard Abbe refractometry.

In the case of `CC(C)CC(C)(C)C` [2,2,4-trimethylpentane], in data set [1], the mass density is given as 687.817 ± 0.62 kg/m3 and the speed of sound is 1082.6 ± 1 m/s. Besides, in data set [2], the refractive index is given as 1.38917 ± 0.00073.
For the molecule `CCC(C)(C)C` [2,2-dimethylbutane], in data set [1], the mass density came to 644.43 ± 0.61 kg/m3 and the speed of sound amounted to 999.69 ± 1.3 m/s. Besides, the refractive index in data set [2] was 1.36608 ± 0.00075.
Turning to `CC(C)C(C)C` [2,3-dimethylbutane], in data set [1], the mass density is reported as 658.562 ± 1.3 kg/m3 and the speed of sound is 1047.1 ± 3.1 m/s. Besides, in data set [2], the refractive index was found to be 1.37275 ± 0.00094.
The matching figures for `CCCC(C)C` [2-methylpentane]: 648.614 ± 0.62 kg/m3, 1082.6 ± 1.3 m/s and 1.36893 ± 0.00075.
For `CCC(C)CC` [3-methylpentane], in that order: 659.806 ± 0.63 kg/m3, 1072.1 ± 1.3 m/s and 1.37399 ± 0.00075.
For `O=C1CCCN1C1CCCCC1` [N-cyclohexylpyrrolidinone], in that order: 1025.56 ± 1.7 kg/m3, 1555.7 ± 2.3 m/s and 1.4975 ± 0.00082.
For `CN1CCCC1=O` [N-methylpyrrolidone], in data set [1], the mass density amounted to 1027.88 ± 1.1 kg/m3 and the speed of sound stood at 1545 ± 1.5 m/s. Further, in data set [2], the refractive index came out at 1.46876 ± 0.00075.
For `C1CCCCC1` [cyclohexane], in that order: 773.948 ± 0.69 kg/m3, 1254.9 ± 0.97 m/s and 1.42378 ± 0.00072.
For `C1CCCCCCC1` [cyclooctane], in that order: 830.967 ± 0.82 kg/m3, 1387.8 ± 1.4 m/s and 1.45624 ± 0.00075.
The matching figures for `CCCCCCCCCC` [decane]: 726.176 ± 0.7 kg/m3, 1232.5 ± 1.4 m/s and 1.4099 ± 0.00075.
`CCCCCC` [hexane]: in data set [1], the mass density came to 654.961 ± 0.62 kg/m3 and the speed of sound stood at 1077.6 ± 1.3 m/s. Besides, in data set [2], the refractive index is 1.37237 ± 0.00075.
For `CCCCCCCC` [octane], in that order: 698.638 ± 0.63 kg/m3, 1170.4 ± 1.1 m/s and 1.39538 ± 0.00073.
Consider `O` [water], for which the refractive index in data set [2] is reported as 1.3325 ± 0.00075.

By mass density is commonly meant mass per unit of volume. One may read the speed of sound as how fast a sound wave travels through the sample. What is called refractive index is a measure of how strongly the sample bends light.

For the origin of these results see the NIST ThermoML archive (doi:10.1016/j.fluid.2008.02.008).
